Experimental findings from ChEMBL document CHEMBL1201862, “PubChem BioAssay data set” (2004) are described below.

Test systems include A498; A549; COLO 205; DU-145; HOP-92; MCF7; MDA-MB-231; MDA-MB-435; MOLT-4; Malme-3M; SF-295; SK-MEL-28; SK-OV-3; SN12C; SW-620; T47D; TK-10; U-251; UACC-62; UO-31.
Holding throughout (assay): NCI-60 cell line screen, 48 h

Each structure is given as a SMILES string.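 All cell lines were grown in 96-well plates and treated with compound for 48 hours. GI50 marks 50% less growth.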 Calls of active or inactive are those of the source. Rule as the data show it: active = GI50 up to about 1.1 µM and inactive = higher.

Turning to `Cc1ccc(NC(=S)N/N=C2\C(=O)Nc3ccccc32)cc1`, the GI50 is 51.6 µM (inactive) in the assay on A498; > 100 µM (inactive) in the assay on A549; > 100 µM (inactive) with COLO 205; 4.43 µM (inactive) in the assay with DU-145; > 100 µM (inactive) with HOP-92; > 100 µM (inactive) with MCF7. For the same compound, the GI50 is > 100 µM (inactive) in the assay on MDA-MB-231; > 100 µM (inactive) with MDA-MB-435; > 100 µM (inactive) in the assay on MOLT-4; > 100 µM (inactive) in the assay with Malme-3M; 49.9 µM (inactive) with SF-295; 4.76 µM (inactive) in the assay with SK-MEL-28. Besides, the GI50 with SK-OV-3, with SN12C, with SW-620, in the assay with T47D, with TK-10 and with U-251 was > 100 µM (inactive) throughout. In addition, the GI50 in the assay with UACC-62 is > 100 µM (inactive); in the assay with UO-31 it was 78.5 µM (inactive).
On to `C[C@@H](c1ccccc1)N(CC#N)[C@H]1CCC[C@]1(O)/C=C/c1ccc2c(c1)OCO2`, for which the GI50 in the assay with A498 is 3.48 µM (inactive); in the assay on A549, > 25 µM (inactive); with COLO 205, > 25 µM (inactive); in the assay on DU-145 it was > 25 µM (inactive); in the assay on HOP-92, > 25 µM (inactive); with MCF7, 5.65 µM (inactive). For the same compound, the GI50 with MDA-MB-231, with MDA-MB-435, with MOLT-4, in the assay on Malme-3M, in the assay with SF-295 and in the assay with SK-MEL-28 was > 25 µM (inactive) in each case. The GI50 in the assay on SK-OV-3 was > 25 µM (inactive); with SN12C it was > 25 µM (inactive); in the assay on T47D, > 25 µM (inactive); with TK-10, > 25 µM (inactive); in the assay on U-251, > 25 µM (inactive); with UACC-62, 3.59 µM (inactive). In the assay on UO-31, the GI50 was > 25 µM (inactive).
Turning to `CC(C)CNC(=O)c1c(NC(=O)c2ccccc2)sc2[nH]c(=O)n(-c3ccccc3)c(=O)c12`, the GI50 with A498 was 27.5 µM (inactive); with A549 it was > 100 µM (inactive); in the assay with COLO 205, > 100 µM (inactive); in the assay on DU-145, > 100 µM (inactive); with HOP-92, 5.09 µM (inactive); in the assay with MCF7 it was > 100 µM (inactive). For the same compound, the GI50 in the assay on MDA-MB-231 was 23.2 µM (inactive); in the assay with MDA-MB-435 it was > 100 µM (inactive); with MOLT-4, 51.3 µM (inactive); in the assay on Malme-3M, > 82.8 µM (inactive); with SF-295 it was 19.6 µM (inactive); with SK-MEL-28, > 100 µM (inactive). For the same compound, the GI50 is 23.8 µM (inactive) with SK-OV-3; > 100 µM (inactive) with SN12C; > 100 µM (inactive) in the assay on SW-620; 89.3 µM (inactive) with T47D; 37.9 µM (inactive) in the assay on TK-10; 31.3 µM (inactive) in the assay on U-251. Besides, the GI50 in the assay with UACC-62 was 64.3 µM (inactive); in the assay on UO-31, > 71.4 µM (inactive).
As for `C=C(c1ccccc1)C1ON(C)CCc2cc(OC)c(OC)cc21` (stereo not drawn), the GI50 was > 100 µM (inactive) in the assay on A498; > 100 µM (inactive) with A549; > 100 µM (inactive) with COLO 205; > 100 µM (inactive) in the assay on DU-145; 34.4 µM (inactive) with HOP-92; 0.256 µM (active) in the assay with MCF7. The GI50 was 53.6 µM (inactive) in the assay with MDA-MB-231; 84.9 µM (inactive) with MDA-MB-435; 89.3 µM (inactive) with MOLT-4; 96.4 µM (inactive) in the assay with Malme-3M; 58.9 µM (inactive) with SF-295; 45.1 µM (inactive) with SK-MEL-28. The GI50 was > 100 µM (inactive) in the assay on SK-OV-3; > 100 µM (inactive) with SN12C; > 100 µM (inactive) in the assay with SW-620; 37 µM (inactive) with T47D; > 100 µM (inactive) in the assay with TK-10; > 100 µM (inactive) in the assay with U-251. Moreover, the GI50 was > 100 µM (inactive) in the assay on UACC-62 and 81.5 µM (inactive) with UO-31.
Turning to `COc1ccc2nc(NC(=O)/C(C#N)=C/c3ccccc3)sc2c1`, the GI50 was 37.3 µM (inactive) in the assay with A498; 59.4 µM (inactive) in the assay with A549; 48.3 µM (inactive) with COLO 205; > 52.6 µM (inactive) in the assay on DU-145; 32.7 µM (inactive) with HOP-92; 36.2 µM (inactive) in the assay on MCF7. Moreover, the GI50 was > 79.8 µM (inactive) in the assay on MDA-MB-231; 24.5 µM (inactive) in the assay on MDA-MB-435; 27.5 µM (inactive) in the assay with MOLT-4; > 49 µM (inactive) in the assay on Malme-3M; 55.6 µM (inactive) in the assay on SF-295; 66.7 µM (inactive) in the assay on SK-MEL-28. The GI50 in the assay with SK-OV-3 is > 70.6 µM (inactive); in the assay on SN12C it was 40.6 µM (inactive); with SW-620 it was 46.9 µM (inactive); with T47D, 30.1 µM (inactive); with TK-10 it was 26.4 µM (inactive); in the assay with U-251 it was 50.1 µM (inactive). Further, the GI50 is 23.1 µM (inactive) in the assay with UACC-62 and 36.8 µM (inactive) with UO-31.
Consider `O=C1C2=C(c3ccccc31)C(c1ccccc1)N1C(=O)CSC1=N2` (stereo not drawn), for which the GI50 in the assay with A498 was > 100 µM (inactive); in the assay with A549 it was 67.1 µM (inactive); with COLO 205, > 56.4 µM (inactive); in the assay on DU-145, 52.4 µM (inactive); in the assay with HOP-92, 32.6 µM (inactive); in the assay with MCF7 it was 33.8 µM (inactive). Besides, the GI50 is 44.8 µM (inactive) in the assay on MDA-MB-231; 17.4 µM (inactive) in the assay with MDA-MB-435; 38.8 µM (inactive) with MOLT-4; 71.9 µM (inactive) with Malme-3M; 41.5 µM (inactive) in the assay with SF-295; 63.5 µM (inactive) in the assay on SK-MEL-28. For the same compound, the GI50 in the assay on SK-OV-3 is > 70.6 µM (inactive); in the assay with SN12C, > 53.6 µM (inactive); in the assay on SW-620, 50.8 µM (inactive); in the assay on T47D it was 29.6 µM (inactive); in the assay on TK-10, > 75.3 µM (inactive); in the assay on U-251 it was > 63 µM (inactive). Besides, the GI50 is 37.8 µM (inactive) in the assay on UACC-62 and 34.8 µM (inactive) with UO-31.
Turning to `CC#CC(O)(C(=O)OCCCN(C)C)C1CCCCC1` (stereo not drawn), the GI50 with A498, in the assay with A549, in the assay on COLO 205, in the assay on DU-145, with HOP-92 and with MCF7 was > 100 µM (inactive) each time. For the same compound, the GI50 with MDA-MB-231, with MDA-MB-435, in the assay on MOLT-4, in the assay on Malme-3M, in the assay with SF-295 and in the assay with SK-MEL-28 was > 100 µM (inactive) in each case. The GI50 in the assay on SK-OV-3, in the assay with SN12C, with SW-620, in the assay on T47D, with TK-10 and with U-251 was > 100 µM (inactive) in each case. In addition, the GI50 in the assay on UACC-62 and with UO-31 was > 100 µM (inactive) in each case.
On to `c1ccc2c(c1)-c1ccccc1C2NC1=NCCO1`, for which the GI50 is 18.2 µM (inactive) in the assay on A498; 32.4 µM (inactive) in the assay with A549; 18.9 µM (inactive) with COLO 205; 52.6 µM (inactive) in the assay with DU-145; 13.9 µM (inactive) in the assay with HOP-92; 22.5 µM (inactive) with MCF7. In addition, the GI50 in the assay with MDA-MB-231 was 24.3 µM (inactive); in the assay on MDA-MB-435, 23 µM (inactive); with MOLT-4, 29.4 µM (inactive); with Malme-3M it was 13.1 µM (inactive); with SF-295, 31.4 µM (inactive); in the assay with SK-MEL-28, 24.9 µM (inactive). Also, the GI50 is 31.4 µM (inactive) in the assay on SK-OV-3; 33.7 µM (inactive) in the assay with SN12C; 54.2 µM (inactive) in the assay on SW-620; 39.4 µM (inactive) in the assay with T47D; 28.1 µM (inactive) in the assay on TK-10; 31.3 µM (inactive) with U-251. Moreover, the GI50 is 20.5 µM (inactive) with UACC-62 and 24.1 µM (inactive) in the assay on UO-31.
Consider `CC(=O)O[C@H]1C(=O)O[C@@H]2C[C@H]3C(C)=CC(=O)[C@@H](O)[C@]3(C)[C@H]3[C@@]4(O)OC[C@]32[C@@H]1[C@@H](C)[C@H]4O`, for which the GI50 in the assay with A498 was 0.103 µM (active); in the assay on COLO 205, 0.188 µM (active); in the assay on DU-145, 0.0321 µM (active); in the assay with HOP-92 it was 0.0329 µM (active); in the assay with MCF7 it was 0.0294 µM (active); in the assay with MDA-MB-231, 0.0475 µM (active). Besides, the GI50 is 0.0214 µM (active) with MDA-MB-435; 0.022 µM (active) in the assay with MOLT-4; 0.0232 µM (active) in the assay with Malme-3M; 0.0535 µM (active) with SF-295; 0.0281 µM (active) with SK-MEL-28; 0.524 µM (active) in the assay with SK-OV-3. In addition, the GI50 in the assay on SN12C was 0.0767 µM (active); in the assay with SW-620, 0.0527 µM (active); in the assay with T47D, 0.0228 µM (active); in the assay with TK-10, < 0.0234 µM (active); in the assay with U-251, 0.0285 µM (active); in the assay with UACC-62 it was 0.0434 µM (active). Moreover, the GI50 in the assay with UO-31 is 0.53 µM (active).
As to `Cc1ccnc2nc(-c3ccc(Cl)cc3)cc(O)c12`, the GI50 was 3.65 µM (inactive) in the assay on A498; 9.08 µM (inactive) in the assay on A549; 2.33 µM (inactive) in the assay with COLO 205; 13.5 µM (inactive) in the assay with DU-145; 2.17 µM (inactive) in the assay with HOP-92; 2.94 µM (inactive) in the assay with MCF7. In addition, the GI50 in the assay with MDA-MB-231 was 14.8 µM (inactive); in the assay on MDA-MB-435 it was 0.578 µM (active); in the assay with MOLT-4, 3.99 µM (inactive); in the assay on Malme-3M, 6.81 µM (inactive); in the assay on SF-295, 4.38 µM (inactive); in the assay with SK-MEL-28, 7.78 µM (inactive). Also, the GI50 in the assay on SK-OV-3 is 3.86 µM (inactive); in the assay with SN12C, 8.2 µM (inactive); in the assay on SW-620, 3.35 µM (inactive); in the assay on T47D it was > 24.5 µM (inactive); with TK-10, > 60.5 µM (inactive); in the assay on U-251, 4.07 µM (inactive). The GI50 with UACC-62 was 3.01 µM (inactive); in the assay with UO-31, 13.1 µM (inactive).
